Reference: patent US20230293601A1 (SYNGEN BIOTECH CO., LTD., priority 2022, published 2023)

How the values were obtained:
intestinal microflora = assay: Microflora analysis of feces of the mice (OTU clustering, heatmap, PLS-DA, metagenomeSeq); assay type: in vivo
Procedure: (§1) A number of 5-week-old male BALB/c strain mice are selected and randomly divided into groups. The experimental period is 18 days. The temperature of rearing environment of the mice in each group is maintained at 22±2° C., with a day and night cycle of 12 hours each.
After the test in embodiment 4, the feces of the mice in each group are collected, and sequence analysis of the feces of the mice in each group is outsourced, and then similarity (greater than 97%) OTUs (Operational Taxonomic Units) clustering and species classification analysis are performed. According to the species annotation results, the top 10 species with relative abundance in the mice in each group in the phylum are selected. Wherein fecal sequencing analysis and microflora analysis are known to a person having ordinary skill in the art to which the invention pertains; generally speaking, the fecal samples are firstly performed with DNA extraction and purification, followed by PCR amplification, purification and sequencing, the sequencing results will go through steps of paired sequence splicing (Raw Tags) and filtering to obtain identifiable valid data, and then OTUs clustering and species classification analysis are performed.
According to the species annotation information and abundance information of all the groups in each taxonomic rank, the top 35 genera in abundance are selected, and the group abundance is the average abundance of all the samples in the group. Clustering is performed at the species level to draw a species heatmap of the fecal samples in each group, the results are shown in FIG. 9.
Partial least square discriminant analysis (PLS-DA) is used to analyze the β-diversity of microbial flora in the feces of the mice in each group to determine whether there is a difference in bacterial flora among the microflora of the mice in each group. The microflora data of the mice in each group are analyzed by metagenomeSeq to evaluate specific differences between the microflora of the mice in each group, and the results are shown in FIG. 11A to FIG. 11D.

BALB/c strain mice = assay: Animal test: body weight, food intake and diarrhea index of mice given 5-FU drug; assay type: in vivo
Procedure: as §1
Body weight and feed intake of the mice in each group are measured and recorded every day during the testing period. The results are shown in FIG. 2 and FIG. 3; after administration of 5-FU drug, the feces of the mice in each group are collected, and the diarrhea index of the mice in each group is evaluated, the results are shown in FIG. 4.

[1] = test system: chemotherapy-induced diarrhea; details: literature, cited from earlier work
IL-6 = assay: Concentration of IL-6 in the serum of the mice (commercial kit); assay type: in vivo; details: same regimen, after the test period; FIG. 5
Procedure: as §1, with “each. […] After the test period in embodiment 4, the serum of the mice in each group is collected respectively, and the concentration of IL-6 in the serum of the mice in each group is analyzed with a commercial kit.” for “each.”

[2] = test system: large intestine and small intestine tissues; assay: Length of large intestine and hematoxylin-eosin staining of small and large intestine tissues of the mice; assay type: in vivo; details: same regimen
Procedure: A number of 5-week-old male BALB/c strain mice are selected and randomly divided into groups. The experimental period is 18 days. The temperature of rearing environment of the mice in each group is maintained at 22±2° C., with a day and night cycle of 12 hours each. […] After the test period in embodiment 4, large intestine and small intestine tissues of the mice in each group are collected, and a length of the large intestine of the mice in each group is measured respectively, the results are shown in FIG. 6; the large intestine and small intestine of the mice in each group are sliced respectively, and stained with hematoxylin-eosin, the results are shown in FIGS. 7A and 7B.

NC(=O)CC[C@H](N)C(=O)O [glutamine, L-glutamine]
relative abundance of Proteobacteria in feces (intestinal microflora; FIG. 8, compared with 5-FU only (group 2)): can be reduced
abundances of the microflora associated with diarrhea and enteritis (Escherichia shigella, Odoribacter) (intestinal microflora; FIG. 9 heatmap, compared with group 2): lower than that of the mice in group 2
microflora distribution (PLS-DA, β-diversity) (intestinal microflora; FIG. 10, relative to group 2): close to that of the mice in group 2
relative abundance of UBA1819 (intestinal microflora; metagenomeSeq, FIG. 11A, compared with group 2): can not be significantly reduced
relative abundance of Staphylococcus (intestinal microflora; metagenomeSeq, FIG. 11B, compared with group 2): can not be significantly reduced
relative abundance of Escherichia shigella (intestinal microflora; metagenomeSeq, FIG. 11C, compared with group 2): can be significantly reduced
relative abundance of Muribaculum (intestinal microflora; metagenomeSeq, FIG. 11D, compared with group 2 (5-FU only)): significantly reduced
body weight (BALB/c strain mice; 5-FU 50 mg/kg/day i.p. days 11-13, BC198 5×10^8/day and/or glutamine 1 g/kg/day oral daily, 18 days, FIG. 2): able to maintain their body weight
food intake (BALB/c strain mice; same regimen, FIG. 3, group 5 statement for days 14-15): able to maintain their body weight and food intake
diarrhea index (BALB/c strain mice; same regimen, FIG. 4, compared with 5-FU only (group 2), days 14-15): able to alleviate the diarrhea caused by 5-FU drug
doxifluridine-induced diarrhea [1]: incapable of inhibiting
severity of 5-FU/calciumfolinate-induced stomatitis, nausea and diarrhea [1]: incapable of mitigating severity
duration of chemotherapy-induced diarrhea ([1]; patients): capable of reducing the duration
severity of chemotherapy-induced diarrhea ([1]; patients): incapable of improving its severity
concentration of IL-6 in the serum (IL-6): significantly lower than that of the mice in group 2
length of large intestine ([2]; after the test period, FIG. 6): maintain their large intestine lengths
structure of small and large intestine tissues (hematoxylin-eosin) ([2]; FIGS. 7A and 7B, compared with 5-FU only (group 2)): able to mitigate lesion to the structures of the small and large intestines induced by 5-FU drug
